Test results published in ChEMBL document CHEMBL5625199, “Discovery of triazole-bridged aryl adamantane analogs as an intriguing class of multifunctional agents for treatment of Alzheimer's disease” (Eur J Med Chem, 2023).
Calls of active or inactive are those of the source. The calls are words filed in the database; no cut-off is given here.

How the values were obtained:
[1] = Antagonist activity at NMDA receptor (unknown origin); design: species or system Homo sapiens
[2] = target: T1, Acetylcholinesterase (Homo sapiens, UniProt P22303); assay: Inhibition of human AChE
T1 sequence (P22303 whole entry): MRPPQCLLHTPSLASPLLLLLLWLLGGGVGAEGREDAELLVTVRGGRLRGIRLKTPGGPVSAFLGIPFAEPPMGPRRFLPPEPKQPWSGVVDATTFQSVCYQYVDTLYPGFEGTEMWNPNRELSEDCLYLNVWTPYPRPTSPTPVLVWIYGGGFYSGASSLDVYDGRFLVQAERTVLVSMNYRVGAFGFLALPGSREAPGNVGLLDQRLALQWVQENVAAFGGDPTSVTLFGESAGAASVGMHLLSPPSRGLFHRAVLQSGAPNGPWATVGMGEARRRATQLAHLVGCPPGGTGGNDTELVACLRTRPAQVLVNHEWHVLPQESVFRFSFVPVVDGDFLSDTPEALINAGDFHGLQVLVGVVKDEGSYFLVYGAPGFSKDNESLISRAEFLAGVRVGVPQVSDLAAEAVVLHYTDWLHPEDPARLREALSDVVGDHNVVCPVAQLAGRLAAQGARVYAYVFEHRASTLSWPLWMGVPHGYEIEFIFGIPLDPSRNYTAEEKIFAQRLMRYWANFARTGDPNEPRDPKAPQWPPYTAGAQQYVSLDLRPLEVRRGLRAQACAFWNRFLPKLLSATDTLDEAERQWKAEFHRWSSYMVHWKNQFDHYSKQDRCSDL

[3] = system: Rattus norvegicus; assay: Antialzheimer activity against Abeta(1 to 42)-induced coginitive deficit Wistar rat model assessed as increase in total number of platform crossings at 5 mg/kg, po administered for 7 days by Morris water maze test; format: functional, organism-based; conditions: time 7.0 day
[4] = system: Rattus norvegicus; assay: Antialzheimer activity against Abeta(1 to 42)-induced coginitive deficit Wistar rat model assessed as increase in time spent in the platform zone at 5 mg/kg, po administered for 7 days by Morris water maze test; format: functional, organism-based; conditions: time 7.0 day
[5] = system: Rattus norvegicus; assay: Antialzheimer activity against scopalamine-induced amnesia Wistar rat model assessed as inhibition of cognition impairment by measuring increase in spontaneous alterations at 5 mg/kg, po administered for 7 days and on day 7 administered with scopolamine at 30 mins before drug administration by Y-maze test; format: functional, organism-based; conditions: time 7.0 day
[6] = Selectivity index, ratio of IC50 for equine serum BuChE to IC50 for electric eel AChE
[7] = in vitro; conditions: PAMPA
Description: Permeability of the compound at 25 ug/ml incubated or 18 hrs by PAMPA-BBB assay

[8] = target: Cholinesterase (Equus caballus, UniProt P81908); assay: Inhibition of equine serum BuChE using butyrylthiocholine iodide as substrate preincubated with enzyme for 10 mins followed by substrate addition and measured every 1 min for 20 mins by spectrophotometric analysis
Sequence of Cholinesterase (P81908 whole entry): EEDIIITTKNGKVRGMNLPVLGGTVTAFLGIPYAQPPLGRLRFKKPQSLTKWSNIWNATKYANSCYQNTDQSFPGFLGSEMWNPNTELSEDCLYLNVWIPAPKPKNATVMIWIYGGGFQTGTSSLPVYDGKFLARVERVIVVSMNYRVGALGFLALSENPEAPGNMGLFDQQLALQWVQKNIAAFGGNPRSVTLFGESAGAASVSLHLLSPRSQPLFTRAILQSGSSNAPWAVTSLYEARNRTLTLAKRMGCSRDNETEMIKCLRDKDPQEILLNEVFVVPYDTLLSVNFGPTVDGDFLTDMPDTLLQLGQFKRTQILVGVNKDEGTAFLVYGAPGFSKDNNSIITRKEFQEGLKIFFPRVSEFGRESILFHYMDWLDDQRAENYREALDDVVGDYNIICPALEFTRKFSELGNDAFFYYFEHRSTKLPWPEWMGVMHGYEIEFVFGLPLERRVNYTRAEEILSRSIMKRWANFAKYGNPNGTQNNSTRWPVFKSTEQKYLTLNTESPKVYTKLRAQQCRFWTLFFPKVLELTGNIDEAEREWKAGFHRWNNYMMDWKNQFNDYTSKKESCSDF

[9] = Antagonist activity at GluN1-1a/GluN2B (unknown origin) expressed in xenopus laevis oocytes assessed as inhibition of glycine/glutamate-induced channel current incubated for 20s measured at holding potential of -70 mV by two-electrode voltage clamp technique; format: cell-based, Homo sapiens; conditions: Oocyte
[10] = target: Acetylcholinesterase (Electrophorus electricus, UniProt O42275); assay: Inhibition of electric eel AChE using acetylthiocholine iodide as substrate preincubated with enzyme for 10 mins followed by substrate addition and measured every 1 min for 20 mins by spectrophotometric analysis
Sequence of Acetylcholinesterase (Electrophorus electricus, UniProt O42275) (O42275 whole entry): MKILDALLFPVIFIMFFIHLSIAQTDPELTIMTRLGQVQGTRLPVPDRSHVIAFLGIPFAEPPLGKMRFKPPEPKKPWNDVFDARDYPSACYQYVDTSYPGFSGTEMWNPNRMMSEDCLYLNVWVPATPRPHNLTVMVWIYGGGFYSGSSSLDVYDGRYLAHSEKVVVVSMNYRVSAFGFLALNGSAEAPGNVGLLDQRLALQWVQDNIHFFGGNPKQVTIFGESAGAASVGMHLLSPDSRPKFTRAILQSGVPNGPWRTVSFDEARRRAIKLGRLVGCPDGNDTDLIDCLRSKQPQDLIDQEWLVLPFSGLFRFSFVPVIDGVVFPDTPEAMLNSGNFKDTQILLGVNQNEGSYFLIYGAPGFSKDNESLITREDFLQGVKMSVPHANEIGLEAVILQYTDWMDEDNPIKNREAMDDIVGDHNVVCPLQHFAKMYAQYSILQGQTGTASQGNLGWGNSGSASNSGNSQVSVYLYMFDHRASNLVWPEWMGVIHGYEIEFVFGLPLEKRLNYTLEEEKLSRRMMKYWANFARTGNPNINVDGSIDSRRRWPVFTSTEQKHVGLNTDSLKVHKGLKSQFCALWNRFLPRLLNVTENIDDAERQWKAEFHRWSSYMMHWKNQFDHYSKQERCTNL

[11] = target: T1, Acetylcholinesterase; assay: Inhibition of AChE (unknown origin)
[12] = system: HEK-293T; assay: Cytotoxicity against HEK293T cells assessed as reduction in cell viability at 0.3 to 100 uM measured after 44 hrs by WST-1 assay; format: toxicity, cell-based; conditions: human, dose 0.3-100 µM
[13] = Antagonist activity at GluN1-1b/GluN2C (unknown origin) expressed in xenopus laevis oocytes assessed as inhibition of glycine/glutamate-induced channel current incubated for 20s measured at holding potential of -70 mV by two-electrode voltage clamp technique; format: cell-based; conditions: Homo sapiens, Oocyte
[14] = Antagonist activity at GluN1-1b/GluN2A (unknown origin) expressed in xenopus laevis oocytes assessed as inhibition of glycine/glutamate-induced channel current incubated for 20s measured at holding potential of -70 mV by two-electrode voltage clamp technique; format: cell-based; conditions: Homo sapiens, Oocyte
[15] = Antagonist activity at GluN1-1a/GluN2C (unknown origin) expressed in xenopus laevis oocytes assessed as inhibition of glycine/glutamate-induced channel current incubated for 20s measured at holding potential of -70 mV by two-electrode voltage clamp technique; format: cell-based; conditions: Homo sapiens, Oocyte
[16] = Antagonist activity at GluN1-1a/GluN2D (unknown origin) expressed in xenopus laevis oocytes assessed as inhibition of glycine/glutamate-induced channel current incubated for 20s measured at holding potential of -70 mV by two-electrode voltage clamp technique; format: cell-based; conditions: Homo sapiens, Oocyte
[17] = Antagonist activity at GluN1-1b/GluN2B (unknown origin) expressed in xenopus laevis oocytes assessed as inhibition of glycine/glutamate-induced channel current incubated for 20s measured at holding potential of -70 mV by two-electrode voltage clamp technique; format: cell-based; conditions: Homo sapiens, Oocyte
[18] = Antagonist activity at GluN1-1b/GluN2D (unknown origin) expressed in xenopus laevis oocytes assessed as inhibition of glycine/glutamate-induced channel current incubated for 20s measured at holding potential of -70 mV by two-electrode voltage clamp technique; format: cell-based; conditions: Homo sapiens, Oocyte
[19] = Antagonist activity at GluN1-1a/GluN2A (unknown origin) expressed in xenopus laevis oocytes assessed as inhibition of glycine/glutamate-induced channel current incubated for 20s measured at holding potential of -70 mV by two-electrode voltage clamp technique; format: cell-based; conditions: Homo sapiens, Oocyte

With `F[C@]12CC3C[C@](NCCCCCNc4c5c(nc6cc(Cl)ccc46)CCCC5)(C[C@H](C1)c1ccccc13)C2` the IC50 [1] was 900 nM.
For `COc1ccc2nc3c(c(NCCCCCNC(=S)N[C@]45CC6C[C@@H](C[C@@H](C6)C4)C5)c2c1)CCCC3`, the Ki [1] was 1800 nM and the IC50 [2] was 470 nM.
In the case of `COc1cc2c(cc1OC)C(=O)C(CC1CCN(Cc3ccccc3)CC1)C2` (stereo not given), the Activity [3] is reported as “Active”, the Activity [4] is reported as “Active” and the Activity [5] is reported as “Active”.
`Brc1ccc(Cn2cc(CNC3CCCCCC3)nn2)cc1` showed a Ratio IC50 [6] of 31.4, a Papp at 18 h, 25 ug/ml [7] of 6.72 ×10⁻⁶ cm/s and an IC50 [8] of 17300 nM. It also gave an IC50 [2] of 621 nM, an IC50 [9] of 38200 nM and an IC50 [10] of 550 nM.
With `c1ccc(Cn2cc(CNC3CCCCCC3)nn2)cc1` the Ratio IC50 [6] was 8.02, the Papp at 18 h, 25 ug/ml [7] was 7.2 ×10⁻⁶ cm/s and the IC50 [8] was 11400 nM. The IC50 [10] was 1410 nM.
`Clc1ccc(Cn2cc(CNC3CCCCCC3)nn2)cc1` gave a Ratio IC50 [6] of 27.1, a Papp at 18 h, 25 ug/ml [7] of 6.84 ×10⁻⁶ cm/s and an IC50 [8] of 16500 nM. For the same compound, the IC50 [2] was 927 nM and the IC50 [10] was 607 nM.
`c1ccc(CNC23OC4C5C6CC(C7C6C4C72)C53)cc1` (stereo not given) gave an IC50 [1] of 2980 nM.
With `Cc1ccc(-c2cn(Cc3ccc4ccccc4c3)nn2)cc1C(=O)NCCN1CCOCC1` the IC50 [11] was 7230 nM.
`Cc1ccc(Cn2cc(CNC3CCCCCC3)nn2)cc1` showed a Ratio IC50 [6] of 15.8, a Papp at 18 h, 25 ug/ml [7] of 7.35 ×10⁻⁶ cm/s and an IC50 [8] of 19300 nM. The IC50 [9] was 63600 nM and the IC50 [10] was 1220 nM.
With `CC12CC3CC(C)(C1)CC(N)(C3)C2` [MEMANTINE] the Activity [12] was “Toxic”, the IC50 [13] was 318 nM and the IC50 [14] was 3390 nM. The IC50 [15] was 222 nM, the Papp at 18 h, 25 ug/ml [7] was 6.84 ×10⁻⁶ cm/s and the IC50 [16] was 367 nM. The IC50 [17] was 1270 nM, the IC50 [18] was 592 nM and the IC50 [19] was 3470 nM. It also gave an IC50 [9] of 778 nM and an IC50 [11] of 780 nM.
For `COc1ccc2c(c1)c(=O)c1ccccc1n2Cc1cn(Cc2ccc(Cl)cc2)nn1`, the IC50 [11] was 7310 nM.
